Test results from patent publication US20220193270A1, “METHOD FOR ENHANCING TUMOR GROWTH” (MINERVA BIOTECHNOLOGIES CORPORATION, priority 2013, published 2022).

Key:
[1] = tested on: MUC1-positive T47D breast cancer cells; assay: RT-PCR of cancer stem cell markers and chromatin rearrangement factors in T47D cells cultured in serum-free minimal media with agent; assay type: cell-based, human
Experimental: (§1) Example 3: Agents that are able to maintain stem cells in the naïve state transform cancer cells into cancer stem cells wherein only a small number of cells are required for engraftment. Cancer cells were cultured according to standard practice. In the controls, the cancer cells were cultured in their normal media: RPMI for T47D breast cancer cells, DU145 and PC3 prostate cancer cells. However, the test agents, recombinant proteins human NME1 dimers, bacterial HSP593 NME1 dimers, human NME7-AB and 2i, were added to a serum-free minimal media to eliminate potential interference from the many growth factors and cytokines in serum.
Serum-free Minimal Media 500 mL includes the following components: 394 mL DMEM/F12, GlutaMAX; 100 mL Knockout™ Serum Replacement; 5.0 mL 100×MEM Non-essential Amino Acid Solution; 0.9 mL P-mercaptoethanol, 55 mM stock.
(§2) To this serum-free minimal media, rhNME1 (aka NM23) was added to a final concentration of 8 nM, or bacterial HSP593 recombinant NME1 was added to a final concentration of 8 nM, or rhNME7-AB was added to a final concentration of 4 nM, or 2i inhibitors, PD0325901 and CHIR99021, which inhibit the MAP kinase pathway and GSK3, respectively, were added to a final concentration of 3 μM and 1 μM.
When a rho kinase inhibitor, “Ri” or “ROCi”, was added it was Y27632 from Stemgent (Cambridge, Mass.), added immediately before use to a final concentration of 10 uM.
Example 3a: Breast cancer T47D cells were cultured either in the traditional RPMI growth media or in a minimal stem cell media to which was added either human NME1 dimers, also known as NM23-H1, bacterial HSP593 NME1 dimers, human NME7-AB, or kinase inhibitors known as ‘2i’. What these agents have in common is that they are each able to promote the growth of stem cells in the naive state or are able to revert primed state stem cells to the less mature naive state. We observed that some of the T47D cancer cells cultured in any of these agents became non-adherent. These ‘floaters’ were also morphologically different. The addition of a rho kinase inhibitor, called ‘Ri’ or ‘ROCP here caused most of the cells to remain attached to the surface. […] When a rho kinase inhibitor is added, all the cells remain attached but the RT-PCR measurements indicate that the resultant measure is of a mixture of the cells that were transformed and those that were not or were not yet.
Example 3c: In this example, the effect of ‘2i’ inhibitors on cancer cells was tested. Recall that 2i is the name given to 2 small molecules, […] that inhibit the MAP kinase pathway and GSK3 respectively. […] In this experiment, we cultured MUCl-positive T47D breast cancer cells in minimal media to which was added either 2i or NME7-AB.

[2] = tested on: DU145 MUC1-positive prostate cancer cells; assay: RT-PCR of cancer stem cell markers in DU145 cells cultured with agent; assay type: cell-based, human; conditions: after 9-10 passages; FIG. 11b
Experimental: as §1, §2
Example 3b: Prostate cancer cells were also cultured as described above with either human NME1 dimers, bacterial NME1 dimers, NME7-AB, or 2i inhibitors. […] Thus, the RT-PCR measurements of the cancer stem cell markers are lower than that of the T47D cells, which could be explained by it being the measure of transformed cells and non-transformed cells. In the case of breast cancer cells, we were able to isolate the fully transformed cancer stem cells by collecting the floating cells, but were not able to do so here. DU145 MUC1-positive prostate cancer cells were cultured in RPMI media as a control and in minimal media to which was added recombinant human NME1/NM23 dimers, bacterial HSP593 dimers, or human NME7-AB. […] There was about a 2-8-fold increase in OCT4, MUC1 and CDH1/E-cadherin. However, after serial passaging under these same culture conditions, the increases in expression of cancer stem cell markers became more pronounced. We reasoned that serial passaging allowed more time for cells to transform since we could not rapidly collect floating cells.

[3] = tested on: PC3 MUC1-negative prostate cancer cells; assay: RT-PCR of stem cell markers in PC3 cells cultured with agent; assay type: cell-based, human
Experimental: as §1, §2
PC3 MUCl-negative prostate cancer cells were also tested for their ability to transform into cancer stem cells when cultured in agents that are able to maintain stem cells in the naïve state. PC3 cells were cultured as described above with either human NME1 dimers, bacterial NME1 dimers or NME7-AB. […] Thus, the RT-PCR measurements of the cancer stem cell markers may be lower because measurements will be the average of transformed cells and non-transformed cells.

human fibroblasts = assay: RT-PCR of stem/cancer markers and chromatin rearrangement factors in fibroblasts cultured with NME proteins; assay type: cell-based; conditions: after 15-20 days in culture
Experimental: Agents that are able to maintain stem cells in the naive state are also able to transform somatic cells to a cancer or stem-like state. Human NME1 dimer or human NME7 are able to make somatic cells revert to a less mature state, expressing stem and cancer cell markers. Bacterial NME from HSP 593 was tested alongside the human homologs to determine if it could mimic their function by being able to revert somatic cells to a cancer-like state. Human fibroblasts were cultured in a serum-free minimal base media with either HSP 593, human NME1 dimers or human NME7-AB as the only growth factor or cytokine. […] Recalling that stem cells and metastatic cancer cells can grow anchorage-independently, we repeated the experiments but this time a rho kinase inhibitor was added to one set of cells to make the cells adhere to the surface. […] Photos of the experiment show the dramatic change in morphology as the fibroblasts revert when cultured in human or bacterial NME, FIGS. 52-59. The relative order of efficiency of reverting somatic cells to a less mature state was NME7>NME1 dimers >NME1 bacterial. […] However, Bacterial NME from HSP 593 apparently up-regulates expression of human NME7 and NME1.
Example 3d: In this example, fibroblast cells were cultured in the presence of recombinant human NME1/NM23 dimers, bacterial HSP593 NME1 dimers or NME7-AB. The fibroblasts were cultured in their normal media as a control, which is for 500 mL, 445 mL DMEM high glucose base media, 5 mL GlutaMAX and 50 mL of fetal bovine serum (FBS). After 15-20 days in culture with either NME1/NM23 dimers, bacterial HSP593 NME1 dimers or NME7-AB, the morphology of the cells completely changed so that they no longer were recognizable as fibroblasts. […] Here, ‘minus ROCi’ refers to cells that became non-adherent and floated off the surface.

[4] = tested on: Human HES-3 embryonic stem cells; assay: Human embryonic stem cell culture with NME protein as only growth factor; assay type: cell-based; conditions: serum-free minimal base media, agent as the only growth factor or cytokine
Excerpt: Factors that are able to maintain stem cells in the naive state are also able to transform cells to a cancer-like or stem-like state and are also able to transform cancer cells to a cancer stem cell state or a more metastatic state. Herein, we have shown several examples of bacterial NME1 being able to function like human NME1 dimers, which are also able to function like NME7 or NME7-AB. However, the primary example that these factors function in a very similar way is their ability to promote the growth of stem cells, inhibit differentiation and maintain them in the naive state. […] Human HES-3 embryonic stem cells were cultured in a serum-free minimal base media with either HSP 593, human NME1 or NME7-dimers or human NME7-AB as the only growth factor or cytokine. […] Several examples have been presented here that indicate that contacting cells with an agent or agents that are able to revert stem cells from the primed state to the less mature naive state are also able to revert a wide variety of cell types to a less mature state: somatic cells to stem or progenitor cells or cancer cells to more metastatic state also called cancer stem cell state. Therefore, the invention is not meant to be limited to a specific cell type or a specific cancer cell type.

NME1 dimers: recombinant human NM23, also called NME1, dimers that bear the 5120G mutation that stabilizes dimers
expression of CDH1 (E-cadherin), MUC1 and NANOG ([1]; FIG. 7): increases | expression of CXCR4, SOX2 and OCT4 ([1]; FIG. 7): dramatic increases | expression of stem cell markers KLF2 and KLF4 ([1]; FIG. 7): modest increases | expression of MBD3, CHD4, BRD4 and JMJD6 ([1]; cancer cells cultured in agent, FIG. 13, FIG. 14): naturally suppressed | expression of NANOG and OCT4 [2]: significant increases | increase in the expression of CDH1/E-cadherin [2]: 6 fold | expression of stem cell markers SOX2, OCT4 and NANOG ([3]; after passage in agent, FIG. 12a): modest increases | expression of cancer stem cell or stem cell markers ([3]; serial passaging in the media, FIG. 12b): decreased | expression of stem cell marker genes OCT4 and NANOG (human fibroblasts; FIG. 15): greatly increased expression | expression of BRD4, JMJD6, MBD3 and CHD4 (human fibroblasts; FIG. 16): decreased expression | support of human stem cell growth [4]: fully supported human stem cell growth
